Type in all cases: cell-based
The subject of assay [1] is Saccharomyces cerevisiae DSM 1333. The assay is described as follows: MIC against clinical fungi, PD broth dilution. The conditions noted are these: 30° C., approximately 40 hours. As to the method:
(§1) Minimal inhibitory concentrations of Arenicin against yeasts and fungi were determined essentially as described by NCCLS/CLSI (clinical and laboratory standards institute).
(§2) In summary, fungal or yeasts suspension of approximately 1 McFarland unit was diluted 1:100 in PD broth (8 g/L potato dextrose) and growth was assayed against serial 2-fold dilutions of Arenicin (0.03-32 micrograms/mL). Assay plates were incubated at 25-27° C. for Candida albicans, Candida tropicalis, Cryptococcus neoformans, Trichophyton mentagrophytes and Epidermophyton floccosum, and at 30° C. for Candida glabrata, Pichia pastoris, Saccharomyces cerevisiae and Aspergillus niger. Growth was recorded visually (naked eye, oblique illumination) after approximately 40 hours of incubation.

In assay [2] the test system is Pichia pastoris ATCC 20864. The assay is described as follows: MIC against clinical fungi, PD broth dilution. As to conditions: 30° C., approximately 40 hours. On the procedure:
as §1, §2

Assay [3] relates to Candida albicans ATCC 18804. In words: MIC against clinical fungi, PD broth dilution. As to conditions: 25-27° C., approximately 40 hours. On the procedure:
as §1, §2
(In general: In broth dilution the organism is exposed to a series of concentrations in liquid medium.)

Assay [4] deals with Trichophyton mentagrophytes DSM 4870. The assay is described as follows: MIC against clinical fungi, PD broth dilution. As to conditions: 25-27° C., approximately 40 hours. On the procedure:
as §1, §2

The test system of assay [5] is Candida albicans ATCC 28517. In words: MIC against clinical fungi, PD broth dilution. The conditions noted are these: 25-27° C., approximately 40 hours. On the procedure: as §1, §2
For assay [6], the system named is Aspergillus niger ATCC9642. The assay is described as follows: MIC against clinical fungi, PD broth dilution. The conditions noted are these: 30° C., approximately 40 hours. As to the method:
as §1, §2

Assay [7] has as its system Cryptococcus neoformans DSM 11959. In words: MIC against clinical fungi, PD broth dilution. As to conditions: 25-27° C., approximately 40 hours. On the procedure: as §1, §2
The test system of assay [8] is Candida glabrata DSM 11226. In words: MIC against clinical fungi, PD broth dilution. The conditions noted are these: 30° C., approximately 40 hours. On the procedure:
as §1, §2

Assay [9] has as its system Candida tropicalis DSM 11953. In words: MIC against clinical fungi, PD broth dilution. As to conditions: 25-27° C., approximately 40 hours. As to the method: as §1, §2
For assay [10], the system named is Pichia pastoris ATCC 201178. The assay is described as follows: MIC against clinical fungi, PD broth dilution. As to conditions: 30° C., approximately 40 hours. As to the method: as §1, §2
Assay [11] concerns Candida albicans ATCC 10231. The assay is described as follows: MIC against clinical fungi, PD broth dilution. The conditions noted are these: 25-27° C., approximately 40 hours. On the procedure:
as §1, §2

Assay [12] deals with Pseudomonas aeruginosa ATCC 9027. The assay is described as follows: MIC, NCCLS/CLSI M7-A6 dilution susceptibility test. The conditions noted are these: average of two independent evaluations. As to the method:
(§3) The antimicrobial peptide shown as amino acids 1 to 21 of SEQ ID NO: 2 was prepared synthetically. The Minimal Inhibitory Concentration (MIC) was determined to test for the antimicrobial activity of Arenicin following the NCCLS guidelines from CLSI (Clinical and Laboratory Standards Institute; formerly known as National Committee for Clinical and Laboratory Standards)—protocol M7-A6, Vol. 20, No. 2: Methods for Dilution Antimicrobial Susceptibility Tests for Bacteria That Grow Aerobically.
(§4) The antimicrobial peptide of the invention was tested against 12 bacterial strains obtained from the American Type Culture Collection (ATCC). The results in Table 1 are average values of two independent evaluations.

The subject of assay [13] is Enterobacter aerogenes ATCC 13048. In words: MIC, NCCLS/CLSI M7-A6 dilution susceptibility test. As to conditions: average of two independent evaluations. On the procedure: as §3, §4
Assay [14] concerns Moraxella catarrhalis ATCC 25238. In words: MIC, NCCLS/CLSI M7-A6 dilution susceptibility test. The conditions noted are these: average of two independent evaluations. As to the method:
as §3, §4

Assay [15] relates to Citrobacter freundii ATCC 8090. In words: MIC, NCCLS/CLSI M7-A6 dilution susceptibility test. As to conditions: average of two independent evaluations. As to the method:
as §3, §4

Assay [16] has as its system Escherichia coli ATCC 25404. In words: MIC, NCCLS/CLSI M7-A6 dilution susceptibility test. The conditions noted are these: average of two independent evaluations. On the procedure:
as §3, §4

In assay [17] the test system is Shigella sonnei ATCC 11060. The assay is described as follows: MIC, NCCLS/CLSI M7-A6 dilution susceptibility test. The conditions noted are these: average of two independent evaluations. As to the method: as §3, §4
Assay [18] has as its system Pseudomonas aeruginosa ATCC 27853. In words: MIC, NCCLS/CLSI M7-A6 dilution susceptibility test. As to conditions: average of two independent evaluations. On the procedure:
as §3, §4

In assay [19] the test system is Acinetobacter iwoffii ATCC 15309. In words: MIC, NCCLS/CLSI M7-A6 dilution susceptibility test. As to conditions: average of two independent evaluations. On the procedure:
as §3, §4

Assay [20] concerns Enterobacter cloacae ATCC 13047. The assay is described as follows: MIC, NCCLS/CLSI M7-A6 dilution susceptibility test. The conditions noted are these: average of two independent evaluations. As to the method:
as §3, §4

The subject of assay [21] is Aeromonas salmonicida ATCC 14174. In words: MIC, NCCLS/CLSI M7-A6 dilution susceptibility test. The conditions noted are these: average of two independent evaluations. As to the method:
as §3, §4

Assay [22] has as its system Escherichia coli ATCC 25922. In words: MIC, NCCLS/CLSI M7-A6 dilution susceptibility test. As to conditions: average of two independent evaluations. On the procedure:
as §3, §4

For assay [23], the system named is Stenotrophomonas maltophlila ATCC 13637. In words: MIC, NCCLS/CLSI M7-A6 dilution susceptibility test. As to conditions: average of two independent evaluations. On the procedure:
as §3, §4

These results are taken from patent publication US7745576B2, “Polypeptides having antimicrobial activity and polynucleotides encoding same” (Novozymes Adenium Biotech A/S, priority 2005, dated 2010).

As for “Arenicin: antimicrobial polypeptide shown as amino acids 1 to 21 of SEQ ID NO: 2 (Arenicola marina), prepared synthetically (MGYSMNIALVYATVLIGVLHV; listed as Arenicola marina)”, the MIC in assay [1] turned out to be 8 micrograms/mL; in assay [2] it was 2 micrograms/mL; in assay [3] it was 8 micrograms/mL; in [4], 8 micrograms/mL; in [5], 8 micrograms/mL; in assay [6] it was 8 micrograms/mL. Moreover, the MIC in [7] is given as 1 microgram/mL; in assay [8], 16 micrograms/mL; in assay [9], 2 micrograms/mL; in assay [10], 4 micrograms/mL; in assay [11], 4 micrograms/mL; in assay [12] it was 1 microgram/mL. The MIC in [13] is on record as 1 microgram/mL; in [14], less than 0.06 microgram/mL; in assay [15] it was 1 microgram/mL; in assay [16], 0.5 microgram/mL; in assay [17], 0.5 microgram/mL; in assay [18], 0.5 microgram/mL. Further, the MIC was 0.25 microgram/mL in assay [19]; 1 microgram/mL in assay [20]; 2 micrograms/mL in assay [21]; 0.25 microgram/mL in assay [22]; 1 microgram/mL in assay [23].
